Patent US11299461B2 (priority 2018, dated 2022)

Molecular target: LF 263-C catalytic domain (anthrax lethal factor) (Bacillus anthracis, UniProt P15917)
Test: biochemical

Chain of LF 263-C catalytic domain (anthrax lethal factor) (P15917 296-809 limits assumed): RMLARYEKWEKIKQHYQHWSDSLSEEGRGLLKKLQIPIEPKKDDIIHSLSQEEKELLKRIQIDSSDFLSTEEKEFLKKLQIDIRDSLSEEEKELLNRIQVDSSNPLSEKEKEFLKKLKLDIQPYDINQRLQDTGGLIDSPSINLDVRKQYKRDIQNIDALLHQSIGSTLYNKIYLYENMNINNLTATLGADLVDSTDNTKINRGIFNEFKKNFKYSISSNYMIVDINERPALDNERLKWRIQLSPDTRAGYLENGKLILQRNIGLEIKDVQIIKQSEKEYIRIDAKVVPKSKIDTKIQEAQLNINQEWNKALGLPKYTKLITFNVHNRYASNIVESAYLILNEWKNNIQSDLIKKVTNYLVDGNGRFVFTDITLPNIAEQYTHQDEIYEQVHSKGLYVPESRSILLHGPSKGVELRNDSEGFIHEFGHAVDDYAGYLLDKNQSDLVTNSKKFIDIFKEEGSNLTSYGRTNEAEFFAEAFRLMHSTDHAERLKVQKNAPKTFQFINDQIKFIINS

| SMILES | Ki [nM] |
| --- | --- |
| CC(C)[C@@H](NCCCC[C@@H](Cc1cc(Cl)c(F)c(Cl)c1)C(=O)NO)c1ccc(Cl)cn1 [Compound 35, (S)-6-(((R)-1-(5-chloropyridin-2-yl)-2-methylpropyl)amino)-2-(3,5-dichloro-4-fluorobenzyl)-N-hydroxyhexanamide] | 0.42 |
| Cc1cc(C[C@H](CCCCN[C@@H](c2ccc(F)cn2)C(C)C)C(=O)NO)cc(F)c1F [Compound 36, (S)-2-(3,4-difluoro-5-methylbenzyl)-6-(((R)-1-(5-fluoropyridin-2-yl)-2-methylpropyl)amino)-N-hydroxyhexanamide] | 0.72 |
| Cc1cc(C[C@H](CCCCN[C@@H](c2ccc(Cl)cn2)C(C)C)C(=O)NO)cc(F)c1F [Compound 37, (S)-6-(((R)-1-(5-chloropyridin-2-yl)-2-methylpropyl)amino)-2-(3,4-difluoro-5-methylbenzyl)-N-hydroxyhexanamide] | 0.87 |
| COc1ccc(CN(C)CCCC[C@@H](Cc2cc(C)c(F)c(F)c2)C(=O)NO)nc1 [Compound 38, (S)-2-(3,4-difluoro-5-methylbenzyl)-N-hydroxy-6-(((5-methoxypyridin-2-yl)methyl)(methyl)amino)hexanamide] | 4.9 |
| CO[C@H](C[C@H](CCCCN[C@H](CO)c1ccc(F)cn1)C(=O)NO)c1ccc(F)cc1 [Compound 39, (S)-2-((R)-2-(4-fluorophenyl)-2-methoxyethyl)-6-(((S)-1-(5-fluoropyridin-2-yl)-2-hydroxyethyl)amino)-N-hydroxyhexanamide] | 1.7 |
| CCN(CCCC[C@@H](C[C@@H](OC)c1ccc(F)cc1)C(=O)NO)Cc1ccc(Cl)cn1 [Compound 40, (S)-6-(((5-chloropyridin-2-yl)methyl)(ethyl)amino)-2-((R)-2-(4-fluorophenyl)-2-methoxyethyl)-N-hydroxyhexanamide] | 4.5 |
| CO[C@H](C[C@H](CCCCNCc1ccc(Cl)cn1)C(=O)NO)c1ccc(F)cc1 [Compound 41, (S)-6-(((5-chloropyridin-2-yl)methyl)amino)-2-((R)-2-(4-fluorophenyl)-2-methoxyethyl)-N-hydroxyhexanamide] | 2.2 |
| CO[C@H](C[C@H](CCCCN(C)Cc1ccc(Cl)cn1)C(=O)NO)c1ccc(F)cc1 [Compound 42, (S)-6-(((5-chloropyridin-2-yl)methyl)(methyl)amino)-2-((R)-2-(4-fluorophenyl)-2-methoxyethyl)-N-hydroxyhexanamide] | 3 |
| CO[C@H](C[C@H](CCCCN(C)Cc1ccc(Br)cn1)C(=O)NO)c1ccc(F)cc1 [Compound 43, (S)-6-(((5-bromopyridin-2-yl)methyl)(methyl)amino)-2-((R)-2-(4-fluorophenyl)-2-methoxyethyl)-N-hydroxyhexanamide] | 12.5 |
| CCc1cc(Cl)cnc1CN(C)CCCC[C@@H](C[C@@H](OC)c1ccc(F)cc1)C(=O)NO [Compound 44, (S)-6-(((5-chloro-3-ethylpyridin-2-yl)methyl)(methyl)amino)-2-((R)-2-(4-fluorophenyl)-2-methoxyethyl)-N-hydroxyhexanamide] | 6.7 |
| CO[C@H](C[C@H](CCCCN(C)Cc1cccc(C)n1)C(=O)NO)c1ccc(F)cc1 [Compound 45, (S)-2-((R)-2-(4-fluorophenyl)-2-methoxyethyl)-N-hydroxy-6-(methyl((6-methylpyridin-2-yl)methyl)amino)hexanamide] | 15.8 |
| CO[C@H](C[C@H](CCCCN(C)Cc1cc(C)ccn1)C(=O)NO)c1ccc(F)cc1 [Compound 46, (S)-2-((R)-2-(4-fluorophenyl)-2-methoxyethyl)-N-hydroxy-6-(methyl((4-methylpyridin-2-yl)methyl)amino)hexanamide] | 14 |
| CO[C@H](C[C@H](CCCCN(CCO)Cc1ncc(F)cc1Cl)C(=O)NO)c1ccc(F)cc1 [Compound 47, (S)-6-(((3-chloro-5-fluoropyridin-2-yl)methyl)(2-hydroxyethyl)amino)-2-((R)-2-(4-fluorophenyl)-2-methoxyethyl)-N-hydroxyhexanamide] | 53.5 |
| CO[C@H](C[C@H](CCCCN[C@@H](c1ccc(F)cn1)C(C)C)C(=O)NO)c1ccc(F)cc1 [Compound 48, (S)-2-((R)-2-(4-fluorophenyl)-2-methoxyethyl)-6-(((R)-1-(5-fluoropyridin-2-yl)-2-methylpropyl)amino)-N-hydroxyhexanamide] | 0.62 |
| COc1ccc([C@H](NCCCC[C@@H](C[C@@H](OC)c2ccc(F)cc2)C(=O)NO)C(C)C)nc1 [Compound 49, (S)-2-((R)-2-(4-fluorophenyl)-2-methoxyethyl)-N-hydroxy-6-(((R)-1-(5-methoxypyridin-2-yl)-2-methylpropyl)amino)hexanamide] | 2.7 |
| CO[C@H](C[C@H](CCCCN[C@@H](c1ccc(F)c(C)n1)C(C)C)C(=O)NO)c1ccc(F)cc1 [Compound 50, (S)-6-(((R)-1-(5-fluoro-6-methylpyridin-2-yl)-2-methylpropyl)amino)-2-((R)-2-(4-fluorophenyl)-2-methoxyethyl)-N-hydroxyhexanamide] | 2.7 |
| CO[C@H](C[C@H](CCCCN[C@@H](c1ccc(Cl)cn1)C(C)C)C(=O)NO)c1ccc(F)cc1 [Compound 51, (S)-6-(((R)-1-(5-chloropyridin-2-yl)-2-methylpropyl)amino)-2-((R)-2-(4-fluorophenyl)-2-methoxyethyl)-N-hydroxyhexanamide] | 0.54 |
| CO[C@H](C[C@H](CCCCN[C@@H](c1ncc(F)cc1F)C(C)C)C(=O)NO)c1ccc(F)cc1 [Compound 52, (S)-6-(((R)-1-(3,5-difluoropyridin-2-yl)-2-methylpropyl)amino)-2-((R)-2-(4-fluorophenyl)-2-methoxyethyl)-N-hydroxyhexanamide] | 2.1 |
| CO[C@H](C[C@H](CCCCN[C@@H](c1ncc(Cl)cc1Cl)C(C)C)C(=O)NO)c1ccc(F)cc1 [Compound 53, (S)-6-(((R)-1-(3,5-dichloropyridin-2-yl)-2-methylpropyl)amino)-2-((R)-2-(4-fluorophenyl)-2-methoxyethyl)-N-hydroxyhexanamide] | 6.2 |
| CC[C@@H](NCCCC[C@@H](C[C@@H](OC)c1ccc(F)cc1)C(=O)NO)c1ncc(Cl)cc1Cl [Compound 54, (S)-6-(((R)-1-(3,5-dichloropyridin-2-yl)propyl)amino)-2-((R)-2-(4-fluorophenyl)-2-methoxyethyl)-N-hydroxyhexanamide] | 2.4 |
| CO[C@H](C[C@H](CCCCN[C@H](C)c1ccc(Cl)cn1)C(=O)NO)c1ccc(F)cc1 [Compound 55, (S)-6-(((R)-1-(5-chloropyridin-2-yl)ethyl)amino)-2-((R)-2-(4-fluorophenyl)-2-methoxyethyl)-N-hydroxyhexanamide] | 1.6 |
| CC[C@@H](NCCCC[C@@H](C[C@@H](OC)c1ccc(F)cc1)C(=O)NO)c1ccc(Cl)cn1 [Compound 56, (S)-6-(((R)-1-(5-chloropyridin-2-yl)propyl)amino)-2-((R)-2-(4-fluorophenyl)-2-methoxyethyl)-N-hydroxyhexanamide] | 0.79 |
| CCN(CCCC[C@@H](C[C@@H](OC)c1ccc(F)c(C)c1)C(=O)NO)Cc1ccc(Cl)cn1 [Compound 57, (S)-6-(((5-chloropyridin-2-yl)methyl)(ethyl)amino)-2-((R)-2-(4-fluoro-3-methylphenyl)-2-methoxyethyl)-N-hydroxyhexanamide] | 2.8 |
| CO[C@H](C[C@H](CCCCN[C@@H](c1ccc(Cl)cn1)C(C)C)C(=O)NO)c1ccc(F)c(C)c1 [Compound 58, (S)-6-(((R)-1-(5-chloropyridin-2-yl)-2-methylpropyl)amino)-2-((R)-2-(4-fluoro-3-methylphenyl)-2-methoxyethyl)-N-hydroxyhexanamide] | 2.3 |
